# According to US20230123601A1, “PHARMACEUTICAL COMBINATION OF ANTIVIRAL AGENTS TARGETING HBV AND/OR AN IMMUNE MODULATOR FOR TREATMENT OF HBV” (priority 2019, published 2023):
# Test system: HBV
# Experiment: HBsAg levels in serum of AAV/HBV mice (CLIA)
# Type: in vivo, C57BL/6 mice
# Set-up: HBsAg levels in serum (Average ± SD): scale not given here
# Excerpt: The AAV-HBV mouse model is generated by injecting C57BL/6 mice with recombinant adeno-associated virus harboring a replicable HBV genome (AAV-HBV). The rAAV8-1.3 HBV ayw virus stock was purchased from Beijing FivePlus Molecular Medicine Institute (Beijing, China). The animals (male, aged 4-5 weeks upon arrival) were purchased from SLAC Laboratory Animal Co. Ltd (Shanghai, China), acclimatized in the animal facility for 5-7 days, and then injected with 1×10^11 vector genome of AAV-HBV (diluted in 200 μL of PBS) through the tail vein. Persistence expression of HBV genome can be established after three weeks, with high levels of HBV viral markers including HBV DNA, HBsAg, and HBeAg in mouse serum. With stable HBV viremia and competent immune system of the C57BL/6 mice, the AAV-HBV mouse model was used to evaluate the in vivo anti-HBV efficacy of the compounds. The in-life part of the AAV-HBV study was conducted through contracted service at Covance Pharmaceutical Research and Development (Shanghai) Co. Ltd. (Covance Shanghai) and the post-life analysis using the serum was performed internally at Roche Innovation Center Shanghai (RICS).
# Seven days before compound treatment, blood samples were collected for serum preparation (˜15 μL), and based on HBV DNA, HBsAg levels in serum and body weight, the AAV-HBV infected animals were stratified into the different treatment groups.
# Saline (Group 01) and anti-HBV ASO of CMP ID NO: 15_1 at 1.5 or 7.5 mg/kg were dosed sub subcutaneously once a week during Day 0-49 on Days 0, 7, 14, 21, 28, 35, 42 and 49. TLR7 agonist of CMP ID NO: VI 100 mg/kg was administered by oral gavage once every other day during Day 0-55 (QOD) or once weekly during Day 0-49 on Days 0, 7, 14, 21, 28, 35, 42 and 49 (QW). The animals were weekly bled via retro-orbital sinus for sample collection throughout the study.
# Serum HBsAg levels were determined in the serum of infected AAV-HBV mouse using the HBsAg chemoluminescence immunoassay (CLIA) (Autobio diagnostics Co. Ltd., Zhengzhou, China, Cat. no. CL0310-2), according to the manufacturer's protocol. Briefly, 50 μl of serum was transferred to the antibody coated microtiter plate and 50 μl of enzyme conjugate reagent was added. The plate was incubated for 60 min on a shaker at room temperature before all wells were washed six times with washing buffer using an automatic washer. 25 μl of substrate A and then 25 μl of substrate B was added to each well. The plate was incubated for 10 min at RT before luminescence was measured using an Envision luminescence reader (Perkin Elmer). HBsAg is given in the unit IU/ml; where 1 ng HBsAg=1.14 IU.
# To evaluate the combination of the anti-HBV ASO and the TLR7 agonist in an in vivo system, a mouse model of chronic HBV infection was used. In the AAV/HBV mouse model described in the Materials and Method a persistent HBV infection is established resulting in expression of viral markers (HBsAg, HBeAg, HBV DNA) detectable in plasma. The effect on these viral markers upon treatment with the anti-HBV ASO of CMP ID NO: 15_1 (table 2, and FIG. 4) dosed at 1.5 mg/kg or 7.5 mg/kg and the TLR7 agonist of CMP ID NO: VI (table 3) dosed with […] every other day (QOD) or once weekly (QW) in monotherapy or in combination has been evaluated.
structure (smiles),measurement,setting,value
"CC[C@H](OC(C)=O)[C@@H]1C[C@@H](O)[C@H](n2c(=O)sc3cnc(N)nc32)O1 [CMP ID NO: VI, [(1S)-1-[(2S,4R,5R)-5-(5-amino-2-oxo-thiazolo[4,5-d]pyrimidin-3-yl)-4-hydroxy-tetrahydrofuran-2-yl]propyl] acetate]",HBsAg levels in serum (Average ± SD),"D56, 15_1 7.5 mg/kg weekly, VI 100 mg/kg QW, or combination of both",2.13 ± 1.00
same,HBsAg levels in serum (Average ± SD),"D63, 15_1 1.5 mg/kg weekly, VI 100 mg/kg QOD, or combination of both",1.61 ± 0.96
same,HBsAg levels in serum (Average ± SD),"D63, 15_1 1.5 mg/kg weekly, VI 100 mg/kg QW, or combination of both",2.43 ± 1.14
same,HBsAg levels in serum (Average ± SD),"D63, 15_1 7.5 mg/kg weekly, VI 100 mg/kg QOD, or combination of both",1.61 ± 0.96
same,HBsAg levels in serum (Average ± SD),"D63, 15_1 7.5 mg/kg weekly, VI 100 mg/kg QW, or combination of both",2.43 ± 1.14
same,HBsAg levels in serum (Average ± SD),"D70, 15_1 1.5 mg/kg weekly, VI 100 mg/kg QOD, or combination of both",1.9 ± 1.23
same,HBsAg levels in serum (Average ± SD),"D70, 15_1 1.5 mg/kg weekly, VI 100 mg/kg QW, or combination of both",2.48 ± 1.23
same,HBsAg levels in serum (Average ± SD),"D70, 15_1 7.5 mg/kg weekly, VI 100 mg/kg QOD, or combination of both",1.90 ± 1.23
same,HBsAg levels in serum (Average ± SD),"D70, 15_1 7.5 mg/kg weekly, VI 100 mg/kg QW, or combination of both",2.48 ± 1.23
same,HBsAg levels in serum (Average ± SD),"D77, 15_1 1.5 mg/kg weekly, VI 100 mg/kg QOD, or combination of both",1.91 ± 1.18
same,HBsAg levels in serum (Average ± SD),"D77, 15_1 1.5 mg/kg weekly, VI 100 mg/kg QW, or combination of both",2.41 ± 1.16
same,HBsAg levels in serum (Average ± SD),"D77, 15_1 7.5 mg/kg weekly, VI 100 mg/kg QOD, or combination of both",1.91 ± 1.18
same,HBsAg levels in serum (Average ± SD),"D77, 15_1 7.5 mg/kg weekly, VI 100 mg/kg QW, or combination of both",2.41 ± 1.16
same,HBsAg levels in serum (Average ± SD),"D84, 15_1 1.5 mg/kg weekly, VI 100 mg/kg QOD, or combination of both",2.25 ± 1.16
same,HBsAg levels in serum (Average ± SD),"D84, 15_1 1.5 mg/kg weekly, VI 100 mg/kg QW, or combination of both",2.66 ± 1.15
same,HBsAg levels in serum (Average ± SD),"D84, 15_1 7.5 mg/kg weekly, VI 100 mg/kg QOD, or combination of both",2.25 ± 1.16
same,HBsAg levels in serum (Average ± SD),"D84, 15_1 7.5 mg/kg weekly, VI 100 mg/kg QW, or combination of both",2.66 ± 1.15
same,HBsAg levels in serum (Average ± SD),"D91, 15_1 1.5 mg/kg weekly, VI 100 mg/kg QOD, or combination of both",2.05 ± 1.35
same,HBsAg levels in serum (Average ± SD),"D91, 15_1 1.5 mg/kg weekly, VI 100 mg/kg QW, or combination of both",2.66 ± 1.44
same,HBsAg levels in serum (Average ± SD),"D91, 15_1 7.5 mg/kg weekly, VI 100 mg/kg QOD, or combination of both",2.05 ± 1.35
same,HBsAg levels in serum (Average ± SD),"D91, 15_1 7.5 mg/kg weekly, VI 100 mg/kg QW, or combination of both",2.66 ± 1.44
same,HBsAg levels in serum (Average ± SD),"D98, 15_1 1.5 mg/kg weekly, VI 100 mg/kg QOD, or combination of both",2.36 ± 1.26
same,HBsAg levels in serum (Average ± SD),"D98, 15_1 1.5 mg/kg weekly, VI 100 mg/kg QW, or combination of both",2.83 ± 1.16
same,HBsAg levels in serum (Average ± SD),"D98, 15_1 7.5 mg/kg weekly, VI 100 mg/kg QOD, or combination of both",2.36 ± 1.26
same,HBsAg levels in serum (Average ± SD),"D98, 15_1 7.5 mg/kg weekly, VI 100 mg/kg QW, or combination of both",2.83 ± 1.16
same,HBsAg levels in serum (Average ± SD),"D105, 15_1 1.5 mg/kg weekly, VI 100 mg/kg QOD, or combination of both",2.41 ± 1.18
same,HBsAg levels in serum (Average ± SD),"D105, 15_1 1.5 mg/kg weekly, VI 100 mg/kg QW, or combination of both",2.81 ± 1.1
same,HBsAg levels in serum (Average ± SD),"D105, 15_1 7.5 mg/kg weekly, VI 100 mg/kg QOD, or combination of both",2.41 ± 1.18
same,HBsAg levels in serum (Average ± SD),"D105, 15_1 7.5 mg/kg weekly, VI 100 mg/kg QW, or combination of both",2.81 ± 1.10
same,HBsAg levels in serum (Average ± SD),"D111, 15_1 1.5 mg/kg weekly, VI 100 mg/kg QOD, or combination of both",2.69 ± 1.38
same,HBsAg levels in serum (Average ± SD),"D111, 15_1 1.5 mg/kg weekly, VI 100 mg/kg QW, or combination of both",3.1 ± 1.12
same,HBsAg levels in serum (Average ± SD),"D111, 15_1 7.5 mg/kg weekly, VI 100 mg/kg QOD, or combination of both",2.69 ± 1.38
same,HBsAg levels in serum (Average ± SD),"D111, 15_1 7.5 mg/kg weekly, VI 100 mg/kg QW, or combination of both",3.10 ± 1.12
same,initial rate of reduction in HBsAg,"TLR7 agonist alone, FIG. 10A",slow initial rate of reduction in HBsAg
same,time of lowest HBsAg,"TLR7 agonist alone, FIG. 10A (100 mg/kg QOD)",42 days
same,suppression of HBsAg,TLR7 agonist at any of the doses,not capable of suppressing HBsAg to a level below the detection limit
